What was measured:
[1] = system: Jurkat cells; assay: TMT-based proteomics in Jurkat cells; format: cell-based, human; conditions: 100 nM, 8 h
Procedure: To further assess the cellular selectivity of 753b and WH244 for BCL-xL/BCL-2 proteins, multiplexed tandem mass tag (TMT) labeling mass spectrometry proteomic experiments were performed to monitor protein levels in an unbiased fashion. Jurkat cells were treated in triplicate with DMSO, 100 nM 753b or 100 nM WH244 for 8 h (Supplementary Fig. 10b). […] To assess BCL-xL and BCL-2 degradation, we utilized western blotting with the same samples, and successfully verified the degradation of both BCL-xL and BCL-2 proteins induced by 753b and WH244, respectively (Supplementary Fig. 10c). We speculate that these apparently contradictory results may be attributable to some of the limitations of TMT technology, where low TMT-labeling efficiency for some proteins and peptides, can lead to inability to detect these proteins by TMT-based proteomics analysis. This limitation has been observed in several other reported PROTAC studies[52],[53]. […]
Proteins were identified and MS3 reporter ions quantified using MaxQuant (version 2.2.0.0; Max Planck Institute) against the Homo sapiens UniprotKB database (March 2023) with a parent ion tolerance of 3 ppm, a fragment ion tolerance of 0.5 Da, and a reporter ion tolerance of 0.003 Da. […] Protein TMT MS3 reporter ion intensity values were assessed for quality using ProteiNorm for a systematic evaluation of normalization methods. […]

[2] = target: T1, BCL-2 (Homo sapiens, UniProt P10415); assay: Immunoblot degradation of BCL-2 in Jurkat cells; format: cell-based; conditions: for DC50: 16 h treatment, immunoblot
T1 construct: endogenous in cells; host or cells: Jurkat (ATCC TIB-152)
T1 sequence (P10415 whole entry): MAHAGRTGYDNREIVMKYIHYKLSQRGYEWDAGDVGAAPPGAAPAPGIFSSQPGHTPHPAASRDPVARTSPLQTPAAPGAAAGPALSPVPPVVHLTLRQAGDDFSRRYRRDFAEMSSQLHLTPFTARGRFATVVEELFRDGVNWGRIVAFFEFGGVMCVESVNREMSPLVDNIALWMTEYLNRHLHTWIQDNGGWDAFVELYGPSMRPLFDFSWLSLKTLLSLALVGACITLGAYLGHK
Procedure: The data are presented as mean ± s.d. from three replicate cell cultures in a representative experiment for Jurkat cells. h Left, WH244 induces polyubiquitination of WT, K22R BCL-2 and to some extent K17R but not K17/22R BCL-2 in 293T cells. 293T cells were co-transfected as indicated with Flag-BCL−2 WT or mutants and HA-tagged ubiquitin (HA-Ub) plasmids. After 36 h, cells were pretreated with MG132 (10 µM) for 2 h and then treated with or without WH244 (1 μM) for 5 h. The Flag-tagged proteins were immunoprecipitated (IP) and immunoblotted with HA or Flag antibody. Right, The input blot for this assay. Data are a representative of two independent experiments. Source data are provided as Source Data file.
Cells were collected, washed once with ice-cold phosphate-buffered saline, pH 7.2 (PBS, cat. no. 20012027; Thermo Fisher Scientific) and lysed in RIPA lysis buffer (Cat. No. BP-115DG, Boston Bio Products, Ashland, MA, USA) supplemented with protease and phosphatase inhibitor cocktails (Cat. No. PPC1010, Sigma-Aldrich, St. Louis, MO, USA) through sonication. The samples were centrifuged at 15,000 × g for 5 min and the supernatants were transferred into a new tube. The protein concentration in the supernatants was determined using the Pierce BCA protein Assay kit (cat. no. 23225, Thermo Fisher Scientific). The protein concentration was normalized, and the samples were reduced in 4× Laemmli’s SDS-sample buffer (cat. no. BP-110R, Boston Bio Products) and denatured at 95 °C for 5 min. An equal amount of protein samples (20–40 μg per lane) were resolved using precast 4–20% Tris-glycine gels (Mini-PROTEAN TGX, cat. no. 456–1094, Bio-Rad), and resolved proteins were transferred onto 0.2-μm pore size polyvinylidene difluoride (PVDF) blotting membranes (cat. no. LC2002, Thermo Fisher Scientific) using mini trans-blot electrophoretic transfer cell (Bio-Rad). The membranes were blocked with non-fat dry milk (5% wt/vol) in 1×Tris- buffered saline-Tween-20 (TBST) for 1 h at room temperature, and were subsequently probed with primary antibodies at a pre-determined optimal concentration in non-fat dry milk (5% wt/vol in TBST) overnight at 4 °C. The membranes were washed three times (15 min each) in TBST and then incubated with horse radish peroxidase (HRP)-conjugated secondary antibodies for 1 h at room temperature. Following sufficient washing with TBST, the membranes were exposed with ECL Western Blotting Substrate (Bio-Rad), and the signal was detected using the ChemiDoc MP Imaging System (Bio-Rad) and quantified using the ImageJ (v1.53a) software from NIH. Antibodies were purchased from Cell Signaling Technologies (CST) and the dilutions are as follows: BCL-xL (Cat. No. 2762S, 1:1000) and BCL-2 (Cat. No. 2870S, 1:1000). β-actin antibody was purchased from MP Biomedicals (Cat. No. 8691001, 1:20,000).

Compound	Proteins significantly down-regulated among approximately 6000 identified [1]	Earliest time at which BCL-2 degradation is seen ([2]; 0.1 μM WH244, Jurkat cells)	Time to nearly complete degradation of BCL-2 ([2]; 0.1 μM WH244, Jurkat cells)	Time for BCL-2 level to recover to pretreatment level after removal of degrader ([2]; 0.1 μM WH244 for 16 h, then fresh medium, Jurkat cells)	DC50 fold better than 753b (BCL-2) ([2]; Jurkat cells, 16 h)	DC50 ([2]; Jurkat cells)
Cc1ncsc1-c1ccc([C@H](C)NC(=O)[C@@H]2C[C@@H](O)CN2C(=O)[C@@H](NC(=O)CN2CCN(CC(=O)N3CCN(C[C@]4(C)CCC(c5ccc(Cl)cc5)=C(CN5CCN(c6ccc(C(=O)NS(=O)(=O)c7ccc(N[C@H](CCN8C[C@@H]9C[C@H]8CO9)CSc8ccccc8)c(S(=O)(=O)C(F)(F)F)c7)cc6)CC5)C4)CC3)CC2)C(C)(C)C)cc1 [WH244]	none of which exhibited significant down-regulation	1 h	6 h	24 to 48 h	~6.8 fold	7.4 nM
Cc1ncsc1-c1ccc(C(C)NC(=O)C2CC(O)CN2C(=O)C(NC(=O)CCCCCCC(=O)N2CCN(CC3(C)CCC(c4ccc(Cl)cc4)=C(CN4CCN(c5ccc(C(=O)NS(=O)(=O)c6ccc(NC(CCN7CCOCC7)CSc7ccccc7)c(S(=O)(=O)C(F)(F)F)c6)cc5)CC4)C3)CC2)C(C)(C)C)cc1 (centres unmarked) [753b]	none of which exhibited significant down-regulation	–	–	–	–	50 nM

— PMC10979003, “Development and crystal structures of a potent second-generation dual degrader of BCL-2 and BCL-xL” (Nature Communications, 2024)
